Reference: PubChem BioAssay (NCI)
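In this assay, cells in 96-well plates receive the compound at five concentrations for 48 hours. Endpoints are linearly interpolated between the surrounding concentrations. GI50 is the concentration that inhibits growth by half. TGI marks complete inhibition of growth.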

Legend:
Assay in all cases: growth of human tumour cells (NCI), 48 h
[1] = system: COLO 205 colon
[2] = system: SNB-75 CNS
[3] = system: A549 NSCLC
[4] = system: SN12C renal
[5] = system: A498 renal
[6] = system: SF-268 CNS
[7] = system: CCRF-CEM leukemia
[8] = system: MALME-3M melanoma
[9] = system: M14 melanoma
[10] = system: MDA-MB-231 breast

| Structure (SMILES) | TGI [1] [µM] | TGI [2] [µM] | TGI [3] [µM] | TGI [4] [µM] | TGI [5] [µM] | TGI [6] [µM] | TGI [7] [µM] | TGI [8] [µM] | TGI [9] [µM] | GI50 [1] [µM] | GI50 [2] [µM] | GI50 [3] [µM] | GI50 [4] [µM] | GI50 [5] [µM] | GI50 [6] [µM] | GI50 [8] [µM] | GI50 [9] [µM] | GI50 [7] [µM] | GI50 [10] [µM] | TGI [10] [µM] |
| --- | --- | --- | --- | --- | --- | --- | --- | --- | --- | --- | --- | --- | --- | --- | --- | --- | --- | --- | --- | --- |
| O=C1C=CC(=O)C2C1Cc1ccccc1C2c1ccccc1 (stereo not drawn) | 35.5 | > 100 | > 100 | > 100 | 73.1 | > 100 | 68.7 | > 100 | > 100 | – | – | – | – | – | – | – | – | – | – | – |
| O=S(=O)(c1ccccc1)c1nccs1 | > 100 | > 100 | > 100 | > 100 | > 100 | > 100 | – | – | > 100 | – | – | – | – | – | – | – | – | – | – | – |
| COc1cccc2c1C(=O)c1c(O)c3c(c(O)c1C2=O)C[C@@](O)(C(C)=O)C[C@@H]3OC1CC([N+]([O-])(Cc2ccccc2)Cc2ccccc2)C(O)C(C)O1 (stereo partly drawn) | – | 4.25 | 5.18 | 2.34 | 8.53 | – | – | – | 3.07 | – | – | – | – | – | – | – | – | – | – | – |
| C#CCN(N=O)C(=O)NCCCCC(NC(=O)OCc1ccccc1)C(=O)OCc1ccccc1 (stereo not drawn) | – | > 100 | – | > 100 | > 100 | 73.5 | 45.1 | 71.6 | 68 | – | – | – | – | – | – | – | – | – | – | – |
| CCC[CH2][Sn]([CH2]CCC)([CH2]CCC)[O]C(=O)C(OC(C)=O)c1ccccc1 (stereo not drawn) | 0.321 | 0.424 | 0.309 | 0.275 | 0.305 | 0.368 | – | 0.274 | 0.267 | 0.18 | 0.134 | 0.143 | 0.144 | 0.154 | 0.138 | 0.143 | 0.138 | – | – | – |
| CC1(C)OC2CC3COC(=O)C3CC2O1 (stereo not drawn) | > 100 | > 100 | > 100 | > 100 | > 100 | > 100 | > 100 | > 100 | > 100 | – | – | – | – | – | – | – | – | – | – | – |
| COc1cccc(OC(=O)c2ccc(C(F)(F)F)nc2Nc2c(C)cccc2Cl)c1 | > 100 | 40.9 | 58.6 | 64.3 | 41.3 | 86.8 | 78.9 | – | > 100 | 22.6 | 16.4 | 22.8 | 21.4 | 15 | 24.8 | – | 38.9 | 25.6 | 12.9 | 42.5 |
| CCOP(=O)(OCC)/C(C#N)=C\c1ccsc1 | > 100 | > 100 | > 100 | > 100 | – | > 100 | – | > 100 | > 100 | – | – | – | – | – | – | – | – | – | – | – |
| O=C(Nc1cc(Cl)ccc1Cl)c1cc2cccc(Br)c2oc1=O | > 100 | > 100 | > 100 | > 100 | – | – | > 100 | > 100 | > 100 | – | – | – | – | – | – | – | – | – | – | – |
| CN(C)CCNC(=O)c1cccc2nc3ccc4cccnc4c3nc12 | 1.55 | 1.84 | 9.65 | 4.31 | 0.845 | 3.13 | 13.1 | – | 3.03 | – | – | – | – | – | – | – | – | – | – | – |
| CCOc1cc(C(=O)O)c2c(ccc3ccc(OC)c(OC)c32)c1OC | > 100 | > 100 | > 100 | > 100 | – | > 100 | > 100 | > 100 | > 100 | – | – | – | – | – | – | – | – | – | – | > 100 |
| COc1cc2c(c(O)c1C)C(=O)CC(c1ccccc1)O2 (stereo not drawn) | – | > 100 | > 100 | > 100 | > 100 | > 100 | > 10 | > 100 | > 10 | – | – | – | – | – | – | – | – | – | – | – |
| O=C1CSC(c2ccc(-c3nc4ccccc4[nH]3)cc2)=N1 | > 50 | – | > 50 | > 50 | – | > 50 | – | – | > 50 | > 50 | – | 18.8 | > 50 | – | 22.4 | – | 19.7 | – | > 50 | > 50 |
| CC(N)Cc1ccc(Cl)cc1 (stereo not drawn) | > 100 | > 100 | > 100 | > 100 | > 100 | > 100 | > 100 | > 100 | > 100 | – | – | – | – | – | – | – | – | – | – | – |
| Cn1cnc([N+](=O)[O-])c1Sc1nnnn1C | 25.3 | 89.6 | > 100 | 32.1 | > 100 | 50.2 | 25 | 26.9 | 28.4 | – | – | – | – | – | – | – | – | – | – | – |
| COC1=CC(=O)C(Br)=CC1=O | 31 | 29.1 | > 100 | 33.3 | – | 33.8 | 8.84 | 35.6 | 33.5 | – | – | – | – | – | – | – | – | – | – | – |
| COc1ccc2c3c(c(C(=O)O)oc13)CCC2 | > 100 | > 100 | > 100 | > 100 | – | > 100 | > 100 | > 100 | > 100 | – | – | – | – | – | – | – | – | – | – | – |
| O=c1cc(-c2ccccc2)oc2ccc(OC/C(=N/O)c3ccc(F)cc3)cc12 | 8.19 | > 50 | > 50 | 14.5 | – | 14.3 | 17.1 | – | > 50 | 2.23 | 4.64 | 7.12 | 6.59 | – | 3.62 | – | 4.48 | 3.24 | 6.16 | 27.2 |
| CCN1C(=O)N(CC)C2C1NN=c1s/c(=C\c3cccs3)c(=O)n12 (stereo not drawn) | > 100 | > 100 | > 100 | > 100 | 0.0813 | > 100 | > 100 | – | > 100 | 0.154 | 0.0976 | 0.244 | 0.555 | 0.021 | 1.67 | – | 0.105 | 0.256 | 0.468 | > 100 |
| CCCN(CCC)CCc1cc(C(C)=O)n(S(=O)(=O)c2ccc(C)cc2)c1 | > 100 | > 100 | > 100 | > 100 | > 100 | > 100 | > 100 | > 100 | 40.2 | – | – | – | – | – | – | – | – | – | – | – |
| O=C(O)CNc1ccc(Cl)c(Cl)c1 | 41.7 | 94.1 | > 100 | 94.3 | 86.5 | > 100 | 84.8 | – | > 100 | – | – | – | – | – | – | – | – | – | – | > 100 |
